# Measured values taken from publication PMC8172068 (PLoS ONE, 2021).
# “Also recorded” adds a separate entry of the source. Where a name gives a salt, the structure may show the parent alone.
# B1: β-Casein: a 30 kDa protein containing 5 serine residues (protein, UniProt P02666 16-224, looked up)
# Beta-casein: RELEELNVPGEIVESLSSSEESITRINKKIEKFQSEEQQQTEDELQDKIHPFAQTQSLVYPFPGPIPNSLPQNIPPLTQTPVVVPPFLQPEVMGVSKVKEAMAPKHKEMPFPKYPVEPFTESQSLTLTDVENLHLPLPLLQSWMHQPHQPLPPTVMFPPQSVLSLSQSKVLPVPQKAVPYPQRDMPIQAFLLYQEPVLGPVRGPFPIIV
# Molecular target: T1, Acinetobacter baumannii rAcpA (Acinetobacter baumannii, UniProt A0ABX6CG12)
# Experiment: rAcpA enzymatic kinetics with PNPP (Lineweaver-Burk)
# Format: biochemical
# Conditions: PNPP 0.10–10.0 mM, 0.149 μg rAcpA, Lineweaver-Burk plot
# Experimental: Unless indicated otherwise, reaction mixtures contained 2.0 mM PNPP (Sigma Chemical Co.) or phosphorylated compounds (Sigma Chemical Co.), 0.20 M MES (Sigma Chemical Co.) buffer, pH 6.0, 2.0 mM NiCl2, and 0.080–0.30 μg total Acinetobacter baumannii rAcpA protein, and were brought to a final concentration of 0.186 μg/μL protein with addition of bovine serum albumin (BSA, BioRad Laboratories) in a total reaction volume of 200 μL (determination of released phosphate) or 300 μL (determination of released paranitrophenol). All incubations were carried out for 30 minutes at 37 °C after which time reactions were placed in an ice slurry for 3 minutes followed by addition of enzyme to the respective blanks and reactions were terminated by heating at 65 °C for 10 minutes followed by immersion in an ice slurry for 3 minutes. Released phosphate was determined by addition of 1.0 mL BIOMOL GREEN phosphate reagent (Enzo Life Sciences), and monitored at 620 nm using a Genesys 10 UV Scanning Spectrophotometer (Thermo Scientific). Paranitrophenol was monitored at 405 nm following addition of 1.7 mL 0.5 M Glycine buffer, pH 10. Following subtraction of blank values, paranitrophenol and released phosphate were quantitated using paranitrophenol and phosphate standard curves, respectively. All reactions, i.e., generation of paranitrophenol and release of free phosphate were linear with both time (30 minutes) and assay protein (0.30 μg, ~ 13.2 nM). Specific activity is expressed as nmoles paranitrophenol or free phosphate liberated mg^-1s^-1.
# The effect of increasing PNPP substrate on Acinetobacter baumannii rAcpA activity was determined.
# Fig 4 Determination of Km and Vmax. Enzymatic activity (0.149 μg rAcpA) was determined over a broad range of PNPP concentrations (0.10–10.0 mM) in replicates of five for each substrate concentration tested and corresponding blank. Km and Vmax values were derived from standard Lineweaver-Burk plot analysis. Error bars represent 1 standard deviation from the mean.
Molecule,Km [µM],Vmax [pmol/s]
O=[N+]([O-])c1ccc(OP(=O)(O)O)cc1 [PNPP],90,19.2

# Same assay, conditions: calculated on the basis of 37 kDa
row,Molecule,turnover number (kcat) [s⁻¹]
1,O=[N+]([O-])c1ccc(OP(=O)(O)O)cc1 [PNPP],4.80

# Molecular target: T1, Acinetobacter baumannii rAcpA
# Experiment: not given
# Format: biochemical
# Conditions: pH 6
row,Molecule,PNPP hydrolysis as percent of that observed for NiCl2 [%]
1,CoCl2,76

# Same assay, conditions: pH 6.0, divalent cation 2 mM final concentration
row,Molecule,PNPP hydrolysis as percent of that observed for NiCl2
1,[Cl-].[Cl-].[Mg+2] [MgCl2],85%
2,[Cl][Mn][Cl] [MnCl2],50%
3,[Cl][Ni][Cl] [NiCl2],Maximum hydrolysis
4,[Cl-].[Cl-].[Zn+2] [ZnCl2],11%
5,mercury,very inhibitory

# Molecular target: T1, Acinetobacter baumannii rAcpA
# Experiment: biochemical
# Format: biochemical
# Conditions: not given
Molecule,IC50 [µM],Percent Control [%],sensitivity of rAcpA to compound,concentration inhibiting 50% [% v/v],stimulation of PNPP hydrolysis
O[C@@H](CS)[C@@H](O)CS [Dithiothreitol],3000,–,–,–,–
C=C1[C@@H](O)[C@@H]2O[C@]3(CC[C@H](/C=C/[C@@H](C)[C@@H]4CC(C)=C[C@@]5(O[C@H](C[C@@](C)(O)C(=O)O)CC[C@H]5O)O4)O3)CC[C@H]2O[C@@H]1[C@@H](O)C[C@H](C)[C@H]1O[C@@]2(CCCCO2)CC[C@H]1C [Okadaic acid],–,100,insensitive; also recorded: did not inhibit,–,–
O=P(O)(O)OP(=O)(O)O [Sodium Pyrophosphate],2500,–,–,–,–
O=C(O)C(O)C(O)C(=O)O (centres unmarked) [Sodium Tartrate],2000,–,–,–,–
Triton X100,–,–,–,0.32,–
Tween 20,–,140,–,–,~ 1.4 fold

# Same assay, conditions: pH 6; read-out: IC50
row,Molecule,IC50 [µM]
1,O[C@H](CS)[C@@H](O)CS [Dithioerythritol],2000
2,O=C(O)CN(CCN(CC(=O)O)CC(=O)O)CC(=O)O [EDTA],1250
3,[O]=[Mo](=[O])([OH])[OH] [Molybdate],350
4,CCCCCCCCCCCCOS(=O)(=O)[O-].[Na+] [Sodium Dodecyl Sulfate],100
5,[F-].[Na+] [Sodium Fluoride],6000
6,O=P(O)(O)O [Sodium Phosphate],9000
7,"[Na+].[Na+].[Na+].[O]=[V]([O-])([O-])[O-] [Vanadate, sodium orthovanadate]",125
8,OCCS [β-Mercaptoethanol],10000
9,Triton X100,5100

# Same assay, conditions: read-out: IC50
row,Molecule,IC50 [µM]
1,[O]=[Mo](=[O])([OH])[OH] [Molybdate],350
2,CCCCCCCCCCCCOS(=O)(=O)[O-].[Na+] [Sodium Dodecyl Sulfate],100
3,"[Na+].[Na+].[Na+].[O]=[V]([O-])([O-])[O-] [Vanadate, sodium orthovanadate]",125

# Molecular target: T1, Acinetobacter baumannii rAcpA
# Experiment: Hydrolysis of various phosphorylated compounds by rAcpA (released phosphate)
# Format: biochemical
# Conditions: phosphate released relative to paranitrophenol released from PNPP x100; compound at 0.1 mM final concentration
# Experimental: All incubations were carried out for 30 minutes at 37 °C after which time reactions were placed in an ice slurry for 3 minutes followed by addition of enzyme to the respective blanks and reactions were terminated by heating at 65 °C for 10 minutes followed by immersion in an ice slurry for 3 minutes. Released phosphate was determined by addition of 1.0 mL BIOMOL GREEN phosphate reagent (Enzo Life Sciences), and monitored at 620 nm using a Genesys 10 UV Scanning Spectrophotometer (Thermo Scientific). Paranitrophenol was monitored at 405 nm following addition of 1.7 mL 0.5 M Glycine buffer, pH 10. Following subtraction of blank values, paranitrophenol and released phosphate were quantitated using paranitrophenol and phosphate standard curves, respectively. […] Specific activity is expressed as nmoles paranitrophenol or free phosphate liberated mg^-1s^-1.
row,Molecule,Relative Activity [%]
1,K-R-pT-I-R-R [Threonine Phosphopeptide],0.0
2,R-R-A-pS-V-A [Serine Phosphopeptide],0.0
3,T-S-T-E-P-Q-pY-Q-P-G-E-N-L [Tyrosine Phosphopeptide],20.0
4,B1,1.2

# Same assay, conditions: phosphate released relative to paranitrophenol released from PNPP x100; compound at 0.1 mM final concentration; listed as serine phosphopeptide
row,Molecule,Relative Activity [%]
1,R-R-A-pS-V-A [Serine Phosphopeptide],0

# Same assay, conditions: phosphate released relative to paranitrophenol released from PNPP x100; compound at 0.1 mM final concentration; listed as threonine phosphopeptide
row,Molecule,Relative Activity [%]
1,K-R-pT-I-R-R [Threonine Phosphopeptide],0

# Same assay, conditions: phosphate released relative to paranitrophenol released from PNPP x100; compound at 0.1 mM final concentration; listed as tyrosine phosphopeptide
row,Molecule,Relative Activity [%]
1,T-S-T-E-P-Q-pY-Q-P-G-E-N-L [Tyrosine Phosphopeptide],20

# Same assay, conditions: phosphate released relative to paranitrophenol released from PNPP x100; compound at 2.0 mM final concentration
row,Molecule,Relative Activity [%]
1,Nc1ncnc2c1ncn2[C@@H]1O[C@H](CO)[C@@H](OP(=O)(O)O)[C@H]1O [3’-AMP],63.0
2,Nc1ncnc2c1ncn2[C@@H]1O[C@H](COP(=O)(O)OP(=O)(O)O)[C@@H](O)[C@H]1O [ADP],1.9
3,Nc1ncnc2c1ncn2[C@@H]1O[C@H](COP(=O)(O)O)[C@@H](O)[C@H]1O [AMP],27.0
4,Nc1ncnc2c1ncn2[C@@H]1O[C@H](COP(=O)(O)OP(=O)(O)OP(=O)(O)O)[C@@H](O)[C@H]1O [ATP],1.1
5,Nc1ccn([C@@H]2O[C@H](COP(=O)(O)O)[C@@H](O)[C@H]2O)c(=O)n1 [CMP],4.1
6,"O=C(COP(=O)(O)O)[C@@H](O)[C@H](O)[C@H](O)COP(=O)(O)O [Fructose-1,6-bisphosphate]",6.6
7,Nc1nc2c(ncn2[C@@H]2O[C@H](COP(=O)(O)OP(=O)(O)O)[C@@H](O)[C@H]2O)c(=O)[nH]1 [GDP],1.0
8,O=P(O)(O)O[C@H]1O[C@H](CO)[C@H](O)[C@H](O)[C@H]1O [Galactose-1-Phosphate],0.0
9,O=C[C@H](O)[C@@H](O)[C@H](O)[C@H](O)COP(=O)(O)O [Glucose-6-Phosphate],2.7
10,O=c1[nH]cnc2c1ncn2[C@@H]1O[C@H](COP(=O)(O)OP(=O)(O)O)[C@@H](O)[C@H]1O [IDP],0.5
11,O=C[C@@H](O)[C@@H](O)[C@H](O)[C@H](O)COP(=O)(O)O [Mannose-6-Phosphate],10.6
12,NC(=O)C1=CN([C@@H]2O[C@H](COP(=O)(O)OP(=O)(O)OC[C@H]3O[C@@H](n4cnc5c(N)ncnc54)[C@H](OP(=O)(O)O)[C@@H]3O)[C@@H](O)[C@H]2O)C=CC1 [NADPH],3.5
13,NC(=O)c1ccc[n+]([C@@H]2O[C@H](COP(=O)([O-])OP(=O)(O)OC[C@H]3O[C@@H](n4cnc5c(N)ncnc54)[C@H](OP(=O)(O)O)[C@@H]3O)[C@@H](O)[C@H]2O)c1 [NADP^+],3.7
14,C=C(OP(=O)(O)O)C(=O)O [PEP],7.6
15,N[C@@H](COP(=O)(O)O)C(=O)O [Phospho-L-Serine],0.4
16,C[C@@H](OP(=O)(O)O)[C@H](N)C(=O)O [Phospho-L-Threonine],4.5
17,N[C@@H](Cc1ccc(OP(=O)(O)O)cc1)C(=O)O [Phospho-L-Tyrosine],31.5
18,C[N+](C)(C)CCOP(=O)(O)O [Phosphocholine],2.0
19,NCCOP(=O)(O)O [Phosphoethanolamine],1.8
20,O=P(O)(O)O[C@H]1[C@H](OP(=O)(O)O)[C@@H](OP(=O)(O)O)[C@H](OP(=O)(O)O)[C@@H](OP(=O)(O)O)[C@H]1OP(=O)(O)O [Phytic acid],0.0
21,Cc1ncc(COP(=O)(O)O)c(C=O)c1O [Pyridoxal Phosphate],35.3
22,O=C[C@H](O)[C@H](O)[C@H](O)COP(=O)(O)O [Ribose-5-Phosphate],20.0
23,Cc1cn([C@H]2C[C@H](O)[C@@H](COP(=O)(O)OP(=O)(O)O)O2)c(=O)[nH]c1=O [TDP],3.0
24,Cc1cn([C@H]2C[C@H](O)[C@@H](COP(=O)(O)O)O2)c(=O)[nH]c1=O [TMP],27.3
25,Cc1ncc(C[n+]2csc(CCOP(=O)(O)O)c2C)c(N)n1 [Thiamine Monophosphate],12.3
26,Cc1ncc(C[n+]2csc(CCO[P@](=O)(O)OP(=O)(O)O)c2C)c(N)n1 [Thiamine Pyrophosphate],3.6
27,O=P(O)(O)OC[C@H]1O[C@H](O[C@H]2O[C@H](CO)[C@@H](O)[C@H](O)[C@H]2O)[C@H](O)[C@@H](O)[C@@H]1O [Trehalose-6-Phosphate],4.0
28,O=c1ccn([C@@H]2O[C@H](COP(=O)(O)OP(=O)(O)O)[C@@H](O)[C@H]2O)c(=O)[nH]1 [UDP],1.8
29,O=c1ccn([C@@H]2O[C@H](COP(=O)(O)O)[C@@H](O)[C@H]2O)c(=O)[nH]1 [UMP],8.7
30,O=P(O)(O)OC(CO)CO [β-Glycerol Phosphate],40.0

# Same assay, conditions: phosphate released relative to paranitrophenol released from PNPP x100; compound at 2.0 mM final concentration; listed as galactose-1-phosphate
row,Molecule,Relative Activity
1,O=P(O)(O)O[C@H]1O[C@H](CO)[C@H](O)[C@H](O)[C@H]1O [Galactose-1-Phosphate],not hydrolyzed

# Same assay, conditions: phosphate released relative to paranitrophenol released from PNPP x100; compound at 2.0 mM final concentration; listed as phytic acid
row,Molecule,Relative Activity
1,O=P(O)(O)O[C@H]1[C@H](OP(=O)(O)O)[C@@H](OP(=O)(O)O)[C@H](OP(=O)(O)O)[C@@H](OP(=O)(O)O)[C@H]1OP(=O)(O)O [Phytic acid],not hydrolyzed
